Entries after “also recorded” stand apart in the source; their conditions may differ. Read-outs that look alike come from different tables or passages of the source.
Key:
colon CSCs [1] = test: kinase inhibitor library screening, ATP-based viability assay; format: cell-based, human
Procedure: A flowchart showing the steps of the screenings performed on colon CSCs, is depicted in FIG. 5. Before treatment with inhibitors, colon CSCs undergo trypsin/EDTA dissociation in order to be consistently plated into 96-well microtiter plates. After 48 h cells recover from dissociation and form spheroids again. Inhibitors are subsequently added to the cells as single agents while ATP-based-viability assay are performed after another 48 h.
Viability controls are cells treated with DMSO whereas staurosporin-treated cells are positive controls of death.
(§1) Cells were incubated at 37° C. for a variable time, depending on the size and on the sensitivity of each colon CSC line, until single cell suspension was achieved. Cells were then washed once in fresh medium and plated into 96-well microtiter plates in 80 μL volume. The number of cells plated ranged from 2000 to 5000 per well. Drugs were added after 48 h by dispensing each well with 20 μL of medium containing 5× concentrated compounds. We purchased the kinase inhibitor library from Enzo Life Sciences International, Inc (formerly BIOMOL International, L.P., PA, USA) and used each single inhibitor at a final […] concentration. As a control DMSO was added to cells at a final concentration of 0.1% (v/v).
Measure of cell viability was performed using CelltiterGlo® luminescent assay (Promega Corporation, Madison, Wis., USA) and luminescence was recorded on Beckman Coulter DTX880 multimode reader (Beckman Coulter Inc., Fullerton, Calif., USA) with an integration time of 100 ms.
Statistical analysis and IC50 calculations were performed with the aid of Microsoft Excel (Microsoft Corporation, www.microsoft.com) and GraphPad Prism version 4.00 for Windows, (GraphPad Software, San Diego, Calif., www.graphpad.com) while hierarchical clustering was performed with TMev v4.3.01 [10]. Normalized viability represents the signal intensity of each replicate divided by the average of single plate DMSO controls (in percent). Dunnett's post-test was performed on at least three independent experiments for each colon CSC line to calculate statistical significance versus DMSO controls. P values were subsequently clustered by using Euclidean distance as metric and complete linkage as a linkage method.

[2] = molecular target: casein kinase I and PKA, insulin receptor kinase fragment; details: range over casein kinase I; cited from earlier work
[3] = test system: CTSC#85 (TRAIL-resistant colon CSC line); test: drug combination experiment; format: cell-based, human; details: 24 h, TRAIL IC50/17-AAG IC50
Procedure: Normalized viability at 24 h is plotted against drug combinations. […] Recombinant human Killer TRAIL was purchased from Alexis (San Diego, Calif., USA) while Geldanamycin, 17-AAG and 17-DMAG were purchased from Calbiochem (Nottingham, UK). All agents were diluted into fresh medium at the specified concentrations. Measure of cell viability was performed using CelltiterGlo® luminescent assay (Promega Corporation, Madison, Wis., USA) and luminescence was recorded on Beckman Coulter DTX880 multimode reader (Beckman Coulter Inc., Fullerton, Calif., USA) with an integration time of 100 ms.

colon cancer cell lines = details: commercial (non-stem) cell lines, colon and lung; cited from earlier work
CTSC#85 = test: dose-response analysis, viability (CelltiterGlo); format: cell-based, human; details: escalating doses
[4] = molecular target: platelet-derived growth factor receptor tyrosine kinase (Homo sapiens, UniProt P09619); details: cited from earlier work
human PDGF a-receptors = human PDGF a-receptors (Homo sapiens, UniProt P16234); details: cited from earlier work
human PDGF b-receptors = human PDGF b-receptors (Homo sapiens, UniProt P09619); details: cited from earlier work
c-kit = c-kit (Homo sapiens, UniProt P10721); details: at 5 μM; cited from earlier work
[5] = test system: TNF-a-inducible phosphorylation of IkBa; details: cited from earlier work
protein kinase G = details: cited from earlier work
[6] = molecular target: myosin light chain kinase; details: cited from earlier work
rat brain CaM kinase II = details: cited from earlier work
CaM kinase II = details: cited from earlier work
protein kinase A = protein kinase A (Homo sapiens, UniProt P17612); details: cited from earlier work
protein kinase C (PKC) = details: cited from earlier work
[7] = test system: GSK-3 in primary adipocytes; details: cited from earlier work
[8] = molecular target: T1, GSK-3b immunoprecipitates (Homo sapiens, UniProt P49841); details: cited from earlier work
T1 construct: host or cells: immunoprecipitates

PKCd = PKCd (Homo sapiens, UniProt Q05655); details: cited from earlier work
[9] = test system: PKCa, PKCb, and PKCg isoforms; details: cited from earlier work
CaM kinase III = CaM kinase III (Homo sapiens, UniProt O00418); details: cited from earlier work
PKCe, PKCh, and PKCz = details: reduced inhibitory activity; cited from earlier work
c-Raf = c-Raf (Homo sapiens, UniProt P04049); details: selectivity c-Raf over B-Raf; cited from earlier work
[10] = test system: many other protein kinases; details: even at 50 μM; cited from earlier work
SAPK2a/p38a = SAPK2a/p38a (Homo sapiens, UniProt Q16539); details: cited from earlier work
SAPK2b/p38b2 = SAPK2b/p38b2 (Homo sapiens, UniProt Q15759); details: cited from earlier work
Cdk5 = Cdk5 (Homo sapiens, UniProt Q00535); details: cited from earlier work
colon CSCs [11] = test: dose-response analysis on four colon CSCs; format: cell-based, human; details: single agent, escalating doses, four colon CSC lines
Procedure: as §1, with “(v/v). Recombinant human Killer TRAIL was purchased from Alexis (San Diego, Calif., USA) while Geldanamycin, 17-AAG and 17-DMAG were purchased from Calbiochem (Nottingham, UK). All agents were diluted into fresh medium at the specified concentrations. Measure of cell viability was performed using CelltiterGlo® luminescent assay (Promega Corporation, Madison, Wis., USA) and luminescence was recorded on Beckman Coulter DTX880 multimode reader (Beckman Coulter Inc., Fullerton, Calif., USA) with an integration time of 100 ms.” for “(v/v).”

[12] = single agent, 5 μM, viability after 48 h, four colon CSC lines

platelet-derived growth factor receptor tyrosine kinase, sequence (P09619 33-1106): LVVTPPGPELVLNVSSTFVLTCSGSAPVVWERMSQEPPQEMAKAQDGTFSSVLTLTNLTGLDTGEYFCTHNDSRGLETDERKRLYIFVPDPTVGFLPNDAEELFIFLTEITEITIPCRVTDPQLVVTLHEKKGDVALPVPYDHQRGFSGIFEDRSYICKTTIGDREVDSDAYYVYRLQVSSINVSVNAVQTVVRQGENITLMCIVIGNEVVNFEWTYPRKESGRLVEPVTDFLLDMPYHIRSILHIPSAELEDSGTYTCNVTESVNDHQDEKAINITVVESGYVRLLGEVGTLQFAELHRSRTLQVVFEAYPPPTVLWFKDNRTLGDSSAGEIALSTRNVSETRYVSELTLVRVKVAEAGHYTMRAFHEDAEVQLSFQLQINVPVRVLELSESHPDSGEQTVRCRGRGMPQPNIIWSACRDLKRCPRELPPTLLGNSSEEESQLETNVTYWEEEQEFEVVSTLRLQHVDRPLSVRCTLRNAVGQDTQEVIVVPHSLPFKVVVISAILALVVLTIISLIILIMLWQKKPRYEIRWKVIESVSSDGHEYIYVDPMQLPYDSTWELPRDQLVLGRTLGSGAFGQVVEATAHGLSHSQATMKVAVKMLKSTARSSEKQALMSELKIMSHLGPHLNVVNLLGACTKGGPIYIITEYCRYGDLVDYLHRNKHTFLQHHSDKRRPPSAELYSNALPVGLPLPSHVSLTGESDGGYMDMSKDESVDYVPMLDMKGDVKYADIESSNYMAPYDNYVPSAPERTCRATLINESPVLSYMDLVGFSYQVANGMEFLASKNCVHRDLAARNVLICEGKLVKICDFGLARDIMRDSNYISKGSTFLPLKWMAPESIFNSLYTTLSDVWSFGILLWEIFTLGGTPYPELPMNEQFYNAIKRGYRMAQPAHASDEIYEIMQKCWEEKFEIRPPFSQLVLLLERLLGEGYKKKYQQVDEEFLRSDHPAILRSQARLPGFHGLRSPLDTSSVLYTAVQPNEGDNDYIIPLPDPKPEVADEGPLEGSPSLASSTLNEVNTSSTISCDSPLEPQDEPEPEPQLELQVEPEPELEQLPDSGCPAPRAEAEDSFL
human PDGF b-receptors, sequence (P09619 33-1106): as above
SAPK2a/p38a, sequence (Q16539 whole entry): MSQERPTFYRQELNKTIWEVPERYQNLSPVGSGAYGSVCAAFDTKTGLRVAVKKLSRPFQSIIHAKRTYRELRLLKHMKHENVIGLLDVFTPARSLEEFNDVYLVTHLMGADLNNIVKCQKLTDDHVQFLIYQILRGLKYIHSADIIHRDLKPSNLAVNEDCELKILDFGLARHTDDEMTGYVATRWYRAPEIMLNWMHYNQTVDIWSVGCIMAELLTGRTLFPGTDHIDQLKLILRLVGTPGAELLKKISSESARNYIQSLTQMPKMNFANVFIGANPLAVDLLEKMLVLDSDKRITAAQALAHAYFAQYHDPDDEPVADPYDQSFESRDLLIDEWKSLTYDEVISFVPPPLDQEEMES
c-Raf, sequence (P04049 whole entry): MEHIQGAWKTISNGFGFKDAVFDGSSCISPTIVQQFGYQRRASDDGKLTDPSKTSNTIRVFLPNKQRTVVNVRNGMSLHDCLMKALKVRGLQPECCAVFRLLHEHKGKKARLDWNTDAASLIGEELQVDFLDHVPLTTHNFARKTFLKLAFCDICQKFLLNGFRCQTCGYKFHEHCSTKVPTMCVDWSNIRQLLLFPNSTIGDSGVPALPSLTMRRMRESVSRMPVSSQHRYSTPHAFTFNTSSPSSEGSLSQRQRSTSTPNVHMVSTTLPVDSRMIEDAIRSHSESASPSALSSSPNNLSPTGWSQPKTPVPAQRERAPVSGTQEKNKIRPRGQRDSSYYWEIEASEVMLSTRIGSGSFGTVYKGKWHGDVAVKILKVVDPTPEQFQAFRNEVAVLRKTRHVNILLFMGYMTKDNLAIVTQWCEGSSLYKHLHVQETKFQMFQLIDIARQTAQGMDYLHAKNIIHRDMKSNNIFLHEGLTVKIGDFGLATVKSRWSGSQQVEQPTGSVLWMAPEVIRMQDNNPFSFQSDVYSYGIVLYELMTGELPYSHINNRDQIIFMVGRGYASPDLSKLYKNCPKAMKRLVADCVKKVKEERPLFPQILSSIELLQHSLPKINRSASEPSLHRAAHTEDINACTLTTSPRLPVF
PKCd, sequence (Q05655 whole entry, species assumed, canonical isoform): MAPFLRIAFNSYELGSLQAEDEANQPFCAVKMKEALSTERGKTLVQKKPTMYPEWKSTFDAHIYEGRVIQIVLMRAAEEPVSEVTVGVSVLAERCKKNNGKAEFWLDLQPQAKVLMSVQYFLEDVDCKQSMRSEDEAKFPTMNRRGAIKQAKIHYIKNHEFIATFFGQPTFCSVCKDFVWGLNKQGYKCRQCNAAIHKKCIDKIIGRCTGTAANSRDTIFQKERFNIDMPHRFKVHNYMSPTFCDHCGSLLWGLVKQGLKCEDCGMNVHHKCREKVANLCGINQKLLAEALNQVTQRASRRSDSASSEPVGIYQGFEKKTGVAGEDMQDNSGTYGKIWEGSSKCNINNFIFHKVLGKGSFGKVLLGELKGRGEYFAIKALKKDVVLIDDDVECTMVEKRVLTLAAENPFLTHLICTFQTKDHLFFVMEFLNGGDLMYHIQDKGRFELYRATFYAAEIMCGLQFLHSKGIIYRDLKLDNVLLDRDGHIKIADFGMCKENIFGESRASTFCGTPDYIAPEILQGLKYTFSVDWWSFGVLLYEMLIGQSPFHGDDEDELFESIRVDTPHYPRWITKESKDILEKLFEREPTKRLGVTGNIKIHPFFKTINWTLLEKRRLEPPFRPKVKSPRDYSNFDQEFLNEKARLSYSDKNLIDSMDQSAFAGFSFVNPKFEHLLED
SAPK2b/p38b2, sequence (Q15759 whole entry): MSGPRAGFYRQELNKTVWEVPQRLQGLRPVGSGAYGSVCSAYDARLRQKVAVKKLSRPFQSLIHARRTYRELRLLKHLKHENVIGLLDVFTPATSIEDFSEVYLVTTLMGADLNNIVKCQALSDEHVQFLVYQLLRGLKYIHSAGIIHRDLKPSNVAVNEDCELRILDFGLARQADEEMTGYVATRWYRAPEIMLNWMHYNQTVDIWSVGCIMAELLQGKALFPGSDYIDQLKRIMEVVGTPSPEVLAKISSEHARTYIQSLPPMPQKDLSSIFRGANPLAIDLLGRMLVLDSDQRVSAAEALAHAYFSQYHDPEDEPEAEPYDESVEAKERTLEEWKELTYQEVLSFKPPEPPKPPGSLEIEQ
CaM kinase III, sequence (O00418 whole entry): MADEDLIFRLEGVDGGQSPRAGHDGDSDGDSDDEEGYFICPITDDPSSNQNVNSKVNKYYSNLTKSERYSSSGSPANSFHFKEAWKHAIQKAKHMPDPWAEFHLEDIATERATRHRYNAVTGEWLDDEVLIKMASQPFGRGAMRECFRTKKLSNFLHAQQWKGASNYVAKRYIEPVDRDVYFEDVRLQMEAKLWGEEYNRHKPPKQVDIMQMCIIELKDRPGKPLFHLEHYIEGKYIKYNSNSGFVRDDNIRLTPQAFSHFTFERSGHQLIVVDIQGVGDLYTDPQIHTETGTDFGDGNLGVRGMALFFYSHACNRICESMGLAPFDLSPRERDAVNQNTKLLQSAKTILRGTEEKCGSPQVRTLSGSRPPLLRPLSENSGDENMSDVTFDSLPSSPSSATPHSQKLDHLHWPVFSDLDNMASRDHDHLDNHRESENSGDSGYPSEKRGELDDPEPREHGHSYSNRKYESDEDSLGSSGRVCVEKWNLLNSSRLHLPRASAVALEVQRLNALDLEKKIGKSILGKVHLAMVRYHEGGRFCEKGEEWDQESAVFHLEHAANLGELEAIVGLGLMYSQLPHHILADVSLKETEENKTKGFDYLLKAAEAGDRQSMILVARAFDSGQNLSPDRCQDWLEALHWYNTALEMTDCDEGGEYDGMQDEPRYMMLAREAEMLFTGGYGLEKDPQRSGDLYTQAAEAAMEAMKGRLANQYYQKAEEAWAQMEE
Cdk5, sequence (Q00535 whole entry, species assumed): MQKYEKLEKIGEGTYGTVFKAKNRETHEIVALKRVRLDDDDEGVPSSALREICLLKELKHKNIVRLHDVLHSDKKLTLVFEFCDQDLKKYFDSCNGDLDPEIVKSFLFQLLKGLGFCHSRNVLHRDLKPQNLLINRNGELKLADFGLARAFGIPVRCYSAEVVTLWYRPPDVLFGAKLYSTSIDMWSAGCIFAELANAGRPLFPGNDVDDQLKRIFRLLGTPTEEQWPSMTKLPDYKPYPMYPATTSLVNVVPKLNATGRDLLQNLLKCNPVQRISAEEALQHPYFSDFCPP
Cdk5, sequence (Q15078 99-307 partner limits assumed, species assumed): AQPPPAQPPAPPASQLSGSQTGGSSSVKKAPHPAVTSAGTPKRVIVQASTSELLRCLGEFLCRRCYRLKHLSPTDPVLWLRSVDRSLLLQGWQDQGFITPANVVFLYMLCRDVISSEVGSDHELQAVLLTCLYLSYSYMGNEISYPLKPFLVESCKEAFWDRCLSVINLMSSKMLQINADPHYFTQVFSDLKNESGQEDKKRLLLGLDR
T1 sequence (P49841 whole entry): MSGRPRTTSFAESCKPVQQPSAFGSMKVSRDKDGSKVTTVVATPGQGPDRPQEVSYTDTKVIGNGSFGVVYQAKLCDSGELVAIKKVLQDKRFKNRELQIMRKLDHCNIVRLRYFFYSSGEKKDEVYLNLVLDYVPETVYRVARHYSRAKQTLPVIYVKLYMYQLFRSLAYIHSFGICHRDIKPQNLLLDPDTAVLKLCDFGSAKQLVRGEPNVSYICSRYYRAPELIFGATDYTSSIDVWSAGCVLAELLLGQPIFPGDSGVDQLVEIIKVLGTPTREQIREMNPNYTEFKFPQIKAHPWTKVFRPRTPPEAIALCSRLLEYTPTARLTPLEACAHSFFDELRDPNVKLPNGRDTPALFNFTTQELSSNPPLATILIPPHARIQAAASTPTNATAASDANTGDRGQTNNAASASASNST

Molecule: Nc1ncnc2c1c(I)cn2[C@@H]1O[C@H](CO)[C@@H](O)[C@H]1O [5-Iodotubercidin]
- effect on colon CSC proliferation / number versus DMSO controls (colon CSCs [1]; [12]): significantly lead to a reduction in colon CSC numbers
- IC50 [2]: 0.4 to 28 µM

Molecule: C=CCNC1=C2C[C@@H](C)C[C@H](OC)[C@H](O)[C@@H](C)/C=C(\C)[C@H](OC(N)=O)[C@@H](OC)/C=C\C=C(/C)C(=O)NC(=CC1=O)C2=O [17-AAG, 17-Allylamino-17-demethoxygeldanamycin]
- effect of combination with TRAIL on normalized viability [3]: synergistic effect; also recorded: rapidly (24 h) sensitized to TRAIL treatment
- sensitization of tumor cell lines to TRAIL (colon cancer cell lines): sensitizes colon cancer cell lines; also recorded: TRAIL resistance can be overcome

Molecule: CO[C@H]1/C=C\C=C(/C)C(=O)NC2=CC(=O)C(NCCN(C)C)=C(C[C@@H](C)C[C@H](OC)[C@H](O)[C@@H](C)/C=C(\C)[C@@H]1OC(N)=O)C2=O [17-DMAG, 17-dimethylaminoethylamino-17-demethoxy-geldanamycin]
- sensitivity of the TRAIL-resistant colon CSC line to single agent (CTSC#85): sensitive

Molecule: CC(C)(C)c1cc(C=C(C#N)C#N)cc(C(C)(C)C)c1O [AG 17]
- effect on colon CSC proliferation / number versus DMSO controls (colon CSCs [1]; [12]): significantly lead to a reduction in colon CSC numbers
- IC50 [4]: 0.5 µM

Molecule: COc1cc2ncc(-c3ccccc3)nc2cc1OC [AG 1296]
- IC50 (human PDGF a-receptors): 1 µM
- IC50 (human PDGF b-receptors): 0.8 µM
- inhibition (c-kit): c-kit (80% inhibition at 5 μM)

Molecule: Cc1ccc(S(=O)(=O)/C=C/C#N)cc1 [BAY 11-7082]
- IC50 [5]: 10 µM

Molecule: O=S(=O)(c1cccc2cnccc12)N1CCCNCC1 [HA-1077]
- effect on colon CSC proliferation / number versus DMSO controls (colon CSCs [1]; [12]): lead to significant proliferation
- Ki (protein kinase G): 1.6 µM
- Ki [6]: 36 µM

Molecule: CN([C@@H](Cc1ccc(OS(=O)(=O)c2cccc3cnccc23)cc1)C(=O)N1CCN(c2ccccc2)CC1)S(=O)(=O)c1cccc2cnccc12 [KN-62]
- Ki (rat brain CaM kinase II): 0.9 µM

Molecule: COc1ccc(S(=O)(=O)N(CCO)c2ccccc2CN(C)C/C=C/c2ccc(Cl)cc2)cc1 [KN-93]
- Ki (CaM kinase II): 0.37 µM

Molecule: Cn1cc(C2=C(c3cn(CCCSC(=N)N)c4ccccc34)C(=O)NC2=O)c2ccccc21 [Ro-31-8220]
- effect on colon CSC proliferation / number versus DMSO controls (colon CSCs [1]; [12]): significantly lead to a reduction in colon CSC numbers
- IC50 (protein kinase A): 0.9 µM
- IC50 (CaM kinase II): 17 µM
- IC50 (protein kinase C (PKC)): 0.01 µM
- IC50 [7]: 0.0068 µM
- IC50 [8]: 0.0028 µM

Molecule: CC(=O)c1c(O)c(C)c(O)c(Cc2c(O)c3c(c(C(=O)/C=C/c4ccccc4)c2O)OC(C)(C)C=C3)c1O [Rottlerin]
- effect on colon CSC proliferation / number versus DMSO controls (colon CSCs [1]; [12]): significantly lead to a reduction in colon CSC numbers
- IC50 (PKCd): 3 to 6 µM

Molecule: Oc1ccc(-c2nc(-c3ccncc3)c(-c3ccc(F)cc3)[nH]2)cc1 [SB 202190]
- effect on colon CSC proliferation / number versus DMSO controls (colon CSCs [1]; [12]): lead to significant proliferation
- IC50 [9]: 30 to 42 µM
- IC50 (CaM kinase III): 5.3 µM
- IC50 (PKCe, PKCh, and PKCz): 80 to 100 µM

Molecule: Cc1ccc(NC(=O)c2cccc(N(C)C)c2)cc1NC(=O)c1ccc(O)cc1 [ZM 336372]
- effect on colon CSC proliferation / number versus DMSO controls (colon CSCs [1]): lead to significant proliferation
- increased potency on c-Raf compared to B-Raf (c-Raf): ten-fold
- inhibition of many other protein kinases [10]: potency compared to B-Raf, but does not inhibit many other
- IC50 (SAPK2a/p38a): 2 µM
- IC50 (SAPK2b/p38b2): 2 µM

Molecule: Indirubin-3′-monoxime
- IC50 (Cdk5): 0.1 µM

B1: TRAIL: Tumor necrosis factor-related apoptosis-inducing ligand; recombinant human Killer TRAIL from Alexis (protein, UniProt P50591 1-281, looked up)
Tumor necrosis factor ligand …: MAMMEVQGGPSLGQTCVLIVIFTVLLQSLCVAVTYVYFTNELKQMQDKYSKSGIACFLKEDDSYWDPNDEESMNSPCWQVKWQLRQLVRKMILRTSEETISTVQEKQQNISPLVRERGPQRVAAHITGTRGRSNTLSSPNSKNEKALGRKINSWESSRSGHSFLSNLHLRNGELVIHEKGFYYIYSQTYFRFQEEIKENTKNDKQMVQYIYKYTSYPDPILLMKSARNSCWSKDAEYGLYSIYQGGIFELKENDRIFVSVTNEHLIDMDHEASFFGAFLVG
- resistance of colon CSCs to treatment alone (colon CSCs [11]): One out of four colon CSCs is resistant

From patent publication US20090275546A1, “Diagnostic tests and personalized treatment regimes for cancer stem cells” (Istituto Superiore di Sanita, priority 2008, published 2009)
